# According to patent publication US11059821B2, “1H-pyrrolo[2,3-c]pyridin-7(6H)-ones and pyrazolo[3,4-c]pyridin-7(6H)-ones as inhibitors of BET proteins” (Incyte Corporation, priority 2014, dated 2021):
# Test system: KMS.12.BM cell line (human myeloma)
# Experiment: KMS.12.BM cell viability assay
# Format: cell-based
# Details: 72 h, 3 days, ATP quantitation (Cell Titer-GLO), concentration for 50% cell death
# Procedure: KMS.12.BM cell line (human myeloma) was purchased from JCRB (Osaka, Japan) and maintained in RPMI with 10% FBS culture medium. To measure the cytotoxic activity of the compounds through ATP quantitation, the KMS. 12.BM cells are plated in the RPMI culture medium at 5000 cells/well/per 100 μL into a 96-well polystyrene clear black tissue culture plate (Greiner-bio-one through VWR, NJ), in the presence or absence of a concentration range of test compounds. After 3 days, […] Cell Titer-GLO Luminescent (Promega, Madison, Wis.) cell culture agent is added to each well for 10 minutes at room temperature to stabilize the luminescent signal. This determines the number of viable cells in culture based on quantitation of the ATP present, which signals the presence of metabolically active cells. Luminescence is measured with the Top Count 384 (Packard Bioscience through Perkin Elmer, Boston, Mass.). Compound inhibition is determined relative to cells cultured with no drug and the IC50 is reported as the compound concentration required for 50% cell death.
row,Structure (SMILES),IC50 [µM]
1,"Cn1cc(-c2cc(S(C)(=O)=O)cc3c2OC(c2ccccc2)C(=O)N3)c2cc[nH]c2c1=O (stereo not shown) [Example 46, 8-(6-methyl-7-oxo-6,7-dihydro-1H-pyrrolo[2,3-c]pyridin-4-yl)-6-(methylsulfonyl)-2-phenyl-2H-1,4-benzoxazin-3(4H)-one]",≤ 1
2,"CC(=O)c1cc2c(c(-c3cn(C)c(=O)c4[nH]ccc34)c1)OC(C(C)C)C(=O)N2 (stereo not shown) [Example 49, 6-acetyl-2-isopropyl-8-(6-methyl-7-oxo-6,7-dihydro-1H-pyrrolo[2,3-c]pyridin-4-yl)-2H-1,4-benzoxazin-3(4H)-one]",≤ 1
3,"CC(=O)c1cc2c(c(-c3cn(C)c(=O)c4[nH]ccc34)c1)OC(C)(C)C(=O)N2 [Example 80, 6-acetyl-2,2-dimethyl-8-(6-methyl-7-oxo-6,7-dihydro-1H-pyrrolo[2,3-c]pyridin-4-yl)-2H-1,4-benzoxazin-3(4H)-one]",≤ 1
4,"CC(=O)c1cc(-c2cn(C)c(=O)c3[nH]ccc23)c2c(c1)N(C)C(=O)C(C)(C)O2 [Example 82, 6-acetyl-2,2,4-trimethyl-8-(6-methyl-7-oxo-6,7-dihydro-1H-pyrrolo[2,3-c]pyridin-4-yl)-2H-1,4-benzoxazin-3(4H)-one]",≤ 1
